Experimental data taken from patent US12686673B2 (Blueprint Medicines Corporation, priority 2020, dated 2026).
Counter-ions that a name gives are not always drawn. Like-named read-outs stand apart in the source and are kept apart here.

Columns and labels:
Format in all cases: cell-based
A431 cells = test: Cellular proliferation (Alamar Blue) assay, A431
[1] = target: HER2 (A775_G776insYVMA) expressing Ba/F3 stable cell line (Homo sapiens, UniProt P04626, DUP772-775, cells depend on it); test: Cellular proliferation (Alamar Blue) assay, HER2 A775_G776insYVMA Ba/F3; conditions: 72 hr, read-out: YVMA IC50
Method: • 1. EGFR(D770_N771insSVD) expressing Ba/F3 stable cell line • 2. EGFR (A767_dupASV) expressing Ba/F3 stable cell line • 3. A431 cells • 4. EGFR (H773insNPH) expressing Ba/F3 stable cell line • 5. HER2 (A775_G776insYVMA) expressing Ba/F3 stable cell line Assay Procedure: • 1. Seed cells at 5000 for A431 and 15,000 cells for Ba/F3 in 100 μL/well in complete media (for A431: DMEM with […] and for Ba/F3 cells: RPMI with 10% FBS) in 96-well tissue culture plate. Leave outer wells without cells for background measurements. Incubate at 37 degree Celsius in […] humidified incubator for 16-18 hours. • 2. Add 0.025 ml of 5× concentration compound dilution or DMSO control. Final compound concentration range is 10-0.0005 μM prepared in 3-fold serial dilutions. Incubate for 72 hr at 37 degree Celsius in […] humidified incubator. • 3. Add 0.0125 ml Alamar Blue™ reagent to each well with multi-channel pipette and tap gently on each side of the plate to mix. Incubate for 3 hours at 37 degree Celsius in 5% CO2 humidified incubator. • 4. […] Data analysis was performed using XLfit 5.5.0.5.

[2] = target: EGFR(D770_N771insSVD) expressing Ba/F3 stable cell line (Homo sapiens, UniProt P00533, DUP768-770, cells depend on it); test: Cellular proliferation (Alamar Blue) assay, EGFR D770_N771insSVD Ba/F3; conditions: 72 hr, read-out: D770 IC50
Method in brief: (§1)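 Proliferation of mutant-dependent Ba/F3 lines is measured by Alamar Blue reduction over 3 hours, following a 72 hr incubation with test compound spanning 10-0.0005 μM final in threefold dilutions. Cells go in at 15,000 per well in RPMI containing 10% FBS the day before dosing.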

[3] = target: EGFR (A767_dupASV) expressing Ba/F3 stable cell line (Homo sapiens, UniProt P00533, DUP767-769, cells depend on it); test: Cellular proliferation (Alamar Blue) assay, EGFR A767_dupASV Ba/F3; conditions: 72 hr, read-out: A767 IC50
Method in brief: as §1

[4] = Homo sapiens, A-431; A431 cells, Alamar Blue, 72 hr; read-out: A431 IC50
[5] = Homo sapiens, A-431; A431 cells, 72 hr, Alamar Blue; read-out: A431 IC50

EGFR (A767_dupASV) expressing Ba/F3 stable cell line, sequence (P00533 with tags, fused parts or gaps DUP767-769): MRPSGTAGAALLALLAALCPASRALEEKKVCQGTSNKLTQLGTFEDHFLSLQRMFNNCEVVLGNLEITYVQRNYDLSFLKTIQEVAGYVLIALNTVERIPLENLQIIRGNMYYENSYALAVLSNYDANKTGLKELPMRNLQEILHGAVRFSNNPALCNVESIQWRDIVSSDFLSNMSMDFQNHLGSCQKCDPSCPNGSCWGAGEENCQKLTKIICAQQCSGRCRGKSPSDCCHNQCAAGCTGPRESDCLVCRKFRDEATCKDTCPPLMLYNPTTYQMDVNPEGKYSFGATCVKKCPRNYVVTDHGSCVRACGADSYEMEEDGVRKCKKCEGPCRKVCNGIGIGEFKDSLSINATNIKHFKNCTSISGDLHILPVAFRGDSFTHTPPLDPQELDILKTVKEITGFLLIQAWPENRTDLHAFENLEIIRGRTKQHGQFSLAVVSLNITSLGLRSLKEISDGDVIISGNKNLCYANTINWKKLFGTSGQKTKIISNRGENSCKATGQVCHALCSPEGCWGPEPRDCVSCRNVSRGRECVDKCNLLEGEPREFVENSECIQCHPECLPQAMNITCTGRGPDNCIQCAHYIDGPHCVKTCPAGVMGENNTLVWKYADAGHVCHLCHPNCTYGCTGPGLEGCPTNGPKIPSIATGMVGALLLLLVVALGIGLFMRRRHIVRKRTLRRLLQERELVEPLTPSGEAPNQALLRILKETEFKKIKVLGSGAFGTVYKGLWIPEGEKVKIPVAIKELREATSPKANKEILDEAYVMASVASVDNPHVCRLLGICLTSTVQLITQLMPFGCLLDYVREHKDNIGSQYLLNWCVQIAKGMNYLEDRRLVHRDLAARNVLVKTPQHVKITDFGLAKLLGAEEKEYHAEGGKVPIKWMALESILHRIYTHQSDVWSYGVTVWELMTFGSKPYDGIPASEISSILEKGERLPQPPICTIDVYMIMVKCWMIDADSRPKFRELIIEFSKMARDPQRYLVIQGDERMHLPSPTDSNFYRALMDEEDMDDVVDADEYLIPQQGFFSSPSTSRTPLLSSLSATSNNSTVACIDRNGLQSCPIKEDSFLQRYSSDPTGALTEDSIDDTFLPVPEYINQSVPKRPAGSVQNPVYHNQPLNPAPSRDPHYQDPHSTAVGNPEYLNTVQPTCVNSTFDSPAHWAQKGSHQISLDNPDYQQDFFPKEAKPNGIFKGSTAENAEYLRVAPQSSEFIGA
HER2 (A775_G776insYVMA) expressing Ba/F3 stable cell line, sequence (P04626 with tags, fused parts or gaps DUP772-775): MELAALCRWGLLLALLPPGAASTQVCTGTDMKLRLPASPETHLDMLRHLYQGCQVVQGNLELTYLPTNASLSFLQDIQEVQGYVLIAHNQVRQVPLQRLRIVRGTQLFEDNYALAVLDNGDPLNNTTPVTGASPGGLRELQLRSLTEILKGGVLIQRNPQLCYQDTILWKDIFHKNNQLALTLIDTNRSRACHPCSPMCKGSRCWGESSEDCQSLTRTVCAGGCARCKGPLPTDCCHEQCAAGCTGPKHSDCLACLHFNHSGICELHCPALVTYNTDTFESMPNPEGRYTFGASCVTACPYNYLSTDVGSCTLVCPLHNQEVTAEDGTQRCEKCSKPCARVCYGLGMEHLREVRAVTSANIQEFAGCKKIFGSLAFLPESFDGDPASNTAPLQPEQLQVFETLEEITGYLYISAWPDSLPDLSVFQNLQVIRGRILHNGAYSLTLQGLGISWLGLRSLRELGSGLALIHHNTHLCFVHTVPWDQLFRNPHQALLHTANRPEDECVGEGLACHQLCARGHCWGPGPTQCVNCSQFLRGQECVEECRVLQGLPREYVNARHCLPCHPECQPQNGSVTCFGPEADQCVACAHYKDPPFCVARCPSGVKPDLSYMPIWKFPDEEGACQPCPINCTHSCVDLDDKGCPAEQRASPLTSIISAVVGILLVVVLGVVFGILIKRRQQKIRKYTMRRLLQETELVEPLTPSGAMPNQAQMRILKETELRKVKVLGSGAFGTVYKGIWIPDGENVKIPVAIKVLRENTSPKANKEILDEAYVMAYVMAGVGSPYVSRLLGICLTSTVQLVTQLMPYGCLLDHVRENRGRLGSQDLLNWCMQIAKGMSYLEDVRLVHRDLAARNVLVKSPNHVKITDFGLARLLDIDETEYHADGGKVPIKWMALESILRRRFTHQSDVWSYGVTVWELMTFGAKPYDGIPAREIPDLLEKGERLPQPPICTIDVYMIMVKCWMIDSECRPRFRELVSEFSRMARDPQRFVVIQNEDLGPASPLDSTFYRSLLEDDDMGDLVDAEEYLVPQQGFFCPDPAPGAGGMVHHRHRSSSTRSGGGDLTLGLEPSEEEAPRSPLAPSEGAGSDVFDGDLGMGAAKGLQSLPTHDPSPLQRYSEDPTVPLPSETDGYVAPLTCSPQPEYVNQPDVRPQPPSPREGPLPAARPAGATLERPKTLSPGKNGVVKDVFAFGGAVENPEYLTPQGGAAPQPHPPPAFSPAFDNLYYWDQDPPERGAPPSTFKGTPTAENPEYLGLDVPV
EGFR(D770_N771insSVD) expressing Ba/F3 stable cell line, sequence (P00533 with tags, fused parts or gaps DUP768-770): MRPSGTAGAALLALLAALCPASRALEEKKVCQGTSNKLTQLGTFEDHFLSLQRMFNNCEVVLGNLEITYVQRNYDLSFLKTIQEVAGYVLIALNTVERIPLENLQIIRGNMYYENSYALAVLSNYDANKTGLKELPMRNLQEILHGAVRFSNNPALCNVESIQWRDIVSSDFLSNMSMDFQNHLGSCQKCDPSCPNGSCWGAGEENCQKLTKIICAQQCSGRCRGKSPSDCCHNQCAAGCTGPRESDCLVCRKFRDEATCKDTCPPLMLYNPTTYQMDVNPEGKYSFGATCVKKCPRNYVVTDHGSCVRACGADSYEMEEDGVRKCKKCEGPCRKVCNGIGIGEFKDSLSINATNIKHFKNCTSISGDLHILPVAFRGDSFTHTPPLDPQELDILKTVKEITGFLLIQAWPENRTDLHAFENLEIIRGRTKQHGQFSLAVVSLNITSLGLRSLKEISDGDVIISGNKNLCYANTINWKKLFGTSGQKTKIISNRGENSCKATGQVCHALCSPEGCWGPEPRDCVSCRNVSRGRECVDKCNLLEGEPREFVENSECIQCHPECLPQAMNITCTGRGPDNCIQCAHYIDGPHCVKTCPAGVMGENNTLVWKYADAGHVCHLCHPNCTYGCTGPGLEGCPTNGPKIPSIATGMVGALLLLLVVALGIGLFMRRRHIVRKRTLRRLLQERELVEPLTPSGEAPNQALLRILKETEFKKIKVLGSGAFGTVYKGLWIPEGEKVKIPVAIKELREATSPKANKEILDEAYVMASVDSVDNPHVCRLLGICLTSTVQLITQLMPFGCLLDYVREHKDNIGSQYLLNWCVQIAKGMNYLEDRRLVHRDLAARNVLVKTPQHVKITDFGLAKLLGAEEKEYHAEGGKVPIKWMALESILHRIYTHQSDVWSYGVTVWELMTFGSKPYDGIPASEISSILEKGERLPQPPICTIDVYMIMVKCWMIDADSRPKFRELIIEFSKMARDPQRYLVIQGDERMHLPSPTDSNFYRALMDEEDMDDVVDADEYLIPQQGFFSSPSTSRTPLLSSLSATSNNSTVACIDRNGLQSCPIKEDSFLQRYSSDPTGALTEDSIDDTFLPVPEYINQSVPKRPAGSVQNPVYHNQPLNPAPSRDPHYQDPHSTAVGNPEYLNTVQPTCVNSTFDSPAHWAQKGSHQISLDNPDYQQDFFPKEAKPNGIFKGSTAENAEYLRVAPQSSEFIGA

IC50 (A431 cells; [4])	GI50 [1]	GI50 [2]	GI50 [3]	IC50 (A431 cells; [5])	SMILES
> 10000 nM	4280 nM	5580 nM	7380 nM	–	CN(C)C/C=C/C(=O)Nc1ccc(F)c(Nc2nc(Nc3cnn(C4CCC(O)CC4)c3)ncc2Cl)c1 (centres unmarked) [Compound 5, (E)-N-(3-((5-chloro-2-((1-(4-hydroxycyclohexyl)-1H-pyrazol-4-yl)amino)pyrimidin-4-yl)amino)-4-fluorophenyl)-4-(dimethylamino)but-2-enamide]
> 10000 nM	9010 nM	> 10000 nM	> 10000 nM	–	COC/C=C/C(=O)Nc1ccc(F)c(Nc2nc(Nc3cnn(C)c3)ncc2Cl)c1 [Compound 6, (E)-N-(3-((5-chloro-2-((1-methyl-1H-pyrazol-4-yl)amino)pyrimidin-4-yl)amino)-4-fluorophenyl)-4-methoxybut-2-enamide]
8730 nM	3220 nM	3270 nM	995 nM	–	Cn1cc(Nc2ncc(Cl)c(Nc3cc(NC(=O)/C=C/CF)ccc3F)n2)cn1 [Compound 7, (E)-N-(3-((5-chloro-2-((1-methyl-1H-pyrazol-4-yl)amino)pyrimidin-4-yl)amino)-4-fluorophenyl)-4-fluorobut-2-enamide]
8580 nM	4990 nM	7450 nM	7580 nM	–	C=CC(=O)Nc1ccc(Cl)c(Nc2nc(Nc3cnn(C)c3)ncc2Cl)c1 [Compound 8, N-(4-chloro-3-((5-chloro-2-((1-methyl-1H-pyrazol-4-yl)amino)pyrimidin-4-yl)amino)phenyl)acrylamide]
8020 nM	7490 nM	9480 nM	> 10000 nM	–	CN(C)C/C=C/C(=O)Nc1ccc(Cl)c(Nc2nc(Nc3cnn(C)c3)ncc2Cl)c1 [Compound 9, (E)-N-(4-chloro-3-((5-chloro-2-((1-methyl-1H-pyrazol-4-yl)amino)pyrimidin-4-yl)amino)phenyl)-4-(dimethylamino)but-2-enamide]
83 nM	349 nM	–	56 nM	–	C=CC(=O)Nc1cccc(Nc2nc(Nc3cnn(C)c3)ncc2-c2ccc(C(F)(F)F)cc2)c1F [Compound 148, N-(2-fluoro-3-((2-((1-methyl-1H-pyrazol-4-yl)amino)-5-(4-(trifluoromethyl)phenyl)pyrimidin-4-yl)amino)phenyl)acrylamide trifluoroacetate]
–	> 10000 nM	–	–	5610 nM	C=CC(=O)Nc1ccc(F)c(Nc2nc(Nc3cnn(C)c3)ncc2N2CCCCC2)c1 [Compound 269, N-(4-fluoro-3-((2-((1-methyl-1H-pyrazol-4-yl)amino)-5-(piperidin-1-yl)pyrimidin-4-yl)amino)phenyl)acrylamide]
–	985 nM	–	–	190 nM	C=CC(=O)Nc1ccc(F)c(Nc2nc(Nc3cnn(C)c3)ncc2-c2ccc3c(cnn3C)c2)c1 [Compound 270, N-(4-fluoro-3-((5-(1-methyl-1H-indazol-5-yl)-2-((1-methyl-1H-pyrazol-4-yl)amino)pyrimidin-4-yl)amino)phenyl)acrylamide]
–	2160 nM	–	–	2960 nM	C=CC(=O)Nc1ccc(F)c(Nc2nc(Nc3cnn(C(C)(C)C#N)c3)ncc2Br)c1 [Compound 271, N-(3-((5-bromo-2-((1-(2-cyanopropan-2-yl)-1H-pyrazol-4-yl)amino)pyrimidin-4-yl)amino)-4-fluorophenyl)acrylamide]
–	602 nM	–	–	1010 nM	C=CC(=O)Nc1ccc(F)c(Nc2nc(Nc3cnn(C(C)(C)C#N)c3)ncc2C2=CCOC2)c1 [Compound 272, N-(3-((2-((1-(2-cyanopropan-2-yl)-1H-pyrazol-4-yl)amino)-5-(2,5-dihydrofuran-3-yl)pyrimidin-4-yl)amino)-4-fluorophenyl)acrylamide]
–	2630 nM	–	–	3930 nM	C=CC(=O)Nc1ccc(F)c(Nc2nc(Nc3cnn(CC(C)(C)O)c3)ncc2Br)c1 [Compound 273, N-(3-((5-bromo-2-((1-(2-hydroxy-2-methylpropyl)-1H-pyrazol-4-yl)amino)pyrimidin-4-yl)amino)-4-fluorophenyl)acrylamide]
–	120 nM	29 nM	–	22 nM	C=CC(=O)Nc1cccc(Nc2nc(Nc3cnn(C)c3)ncc2-c2ccc(Br)cc2)c1 [Compound 274, N-(3-((5-(4-bromophenyl)-2-((1-methyl-1H-pyrazol-4-yl)amino)pyrimidin-4-yl)amino)phenyl)acrylamide]
–	3050 nM	–	–	1430 nM	C=CC(=O)Nc1cccc(Nc2ncc(Cl)c(Nc3cnn(C)c3)n2)c1 [Compound 275, N-(3-((5-chloro-4-((1-methyl-1H-pyrazol-4-yl)amino)pyrimidin-2-yl)amino)phenyl)acrylamide]
–	861 nM	–	–	278 nM	C=CC(=O)Nc1ccc(F)c(Nc2nc(Nc3cnn(C)c3)ncc2-c2ccc(OCc3cccc(F)c3)cc2)c1 [Compound 276, N-(4-fluoro-3-((5-(4-((3-fluorobenzyl)oxy)phenyl)-2-((1-methyl-1H-pyrazol-4-yl)amino)pyrimidin-4-yl)amino)phenyl)acrylamide]
–	645 nM	–	–	293 nM	C=CC(=O)Nc1ccc(F)c(Nc2nc(Nc3cnn(C)c3)ncc2-c2ccc3[nH]ncc3c2)c1 [Compound 277, N-(3-((5-(1H-indazol-5-yl)-2-((1-methyl-1H-pyrazol-4-yl)amino)pyrimidin-4-yl)amino)-4-fluorophenyl)acrylamide]
–	444 nM	–	–	73 nM	C=CC(=O)Nc1ccc(F)c(Nc2nc(Nc3cnn(C)c3)ncc2-c2ccn3ncnc3c2)c1 [Compound 278, N-(3-((5-([1,2,4]triazolo[1,5-a]pyridin-7-yl)-2-((1-methyl-1H-pyrazol-4-yl)amino)pyrimidin-4-yl)amino)-4-fluorophenyl)acrylamide]
–	5160 nM	–	–	520 nM	C=CC(=O)Nc1cccc(Nc2nc(Nc3cnn(C)c3)ncc2F)c1 [Compound 280, N-[3-({5-fluoro-2-[(1-methyl-1H-pyrazol-4-yl)amino]pyrimidin-4-yl}amino)phenyl]prop-2-enamide]
–	1480 nM	–	–	617 nM	C=CC(=O)Nc1cc(Br)cc(Nc2nc(Nc3cnn(C)c3)ncc2Cl)c1 [Compound 283, N-[3-bromo-5-({5-chloro-2-[(1-methyl-1H-pyrazol-4-yl)amino]pyrimidin-4-yl}amino)phenyl]prop-2-enamide]
–	874 nM	–	–	536 nM	C=CC(=O)Nc1ccc(F)c(Nc2nc(Nc3cnn(CCN(C)C)c3)ncc2Cl)c1 [Compound 284, N-(3-((5-chloro-2-((1-(2-(dimethylamino)ethyl)-1H-pyrazol-4-yl)amino)pyrimidin-4-yl)amino)-4-fluorophenyl)acrylamide]
–	764 nM	–	–	473 nM	C=CC(=O)Nc1ccc(F)c(Nc2nc(Nc3ccc(CN(C)C)cc3)ncc2Cl)c1 [Compound 287, N-(3-((5-chloro-2-((4-((dimethylamino)methyl)phenyl)amino)pyrimidin-4-yl)amino)-4-fluorophenyl)acrylamide]
–	3040 nM	–	–	4910 nM	C=CC(=O)Nc1ccc(F)c(Nc2nc(Nc3ccc(N(C)CCN(C)C)cc3)ncc2Cl)c1 [Compound 288, N-(3-((5-chloro-2-((4-((2-(dimethylamino)ethyl)(methyl)amino)phenyl)amino)pyrimidin-4-yl)amino)-4-fluorophenyl)acrylamide]
–	2920 nM	–	–	> 9780 nM	C=CC(=O)Nc1cc(Br)cc(Nc2nc(Nc3cnn(C)c3)ncc2-c2ccc(C(F)(F)F)cc2)c1 [Compound 290, N-[3-bromo-5-({2-[(1-methyl-1H-pyrazol-4-yl)amino]-5-[4-(trifluoromethyl)phenyl]pyrimidin-4-yl}amino)phenyl]prop-2-enamide]
–	1840 nM	–	–	> 10000 nM	C=CC(=O)Nc1cc(Nc2nc(Nc3cnn(C)c3)ncc2Cl)cc(C(F)(F)F)c1 [Compound 291, N-(3-((5-chloro-2-((1-methyl-1H-pyrazol-4-yl)amino)pyrimidin-4-yl)amino)-5-(trifluoromethyl)phenyl)acrylamide]
–	8830 nM	–	–	1020 nM	C=CC(=O)Nc1ccc(Cl)c(Nc2nc(Nc3cnn(C)c3)ncc2-c2ccc(Br)cc2)c1 [Compound 292, N-(3-((5-(4-bromophenyl)-2-((1-methyl-1H-pyrazol-4-yl)amino)pyrimidin-4-yl)amino)-4-chlorophenyl)acrylamide]
–	> 10000 nM	–	–	7790 nM	C=CC(=O)Nc1cc(Nc2nc(Nc3cnn(C)c3)ncc2Cl)cc2ccccc12 [Compound 297, N-(3-((5-chloro-2-((1-methyl-1H-pyrazol-4-yl)amino)pyrimidin-4-yl)amino)naphthalen-1-yl)acrylamide]
